Reference: ChEMBL document CHEMBL4422610, “HDAC as onco target: Reviewing the synthetic approaches with SAR study of their inhibitors” (Eur J Med Chem, 2018)

What was measured:
[1] = test system: HCT-116; experiment: cells; format: functional, cell-based; conditions: Homo sapiens, HCT-116, 72 h
[2] = test system: A549; experiment: cells; format: functional, cell-based; conditions: Homo sapiens, A549, 72 h
[3] = test system: K562; experiment: cells; format: functional, cell-based; conditions: Homo sapiens, K562, 72 h
[4] = molecular target: Histone deacetylase (Homo sapiens) (UniProt Q13547+O15379+Q9UBN7+Q92769+Q9UQL6+Q8WUI4+Q9BY41+Q96DB2+P56524+Q9UKV0+Q969S8); experiment: Inhibition of HDAC in human K562 cells assessed as increase in histone acetylation levels at 500 nM after 3 hrs by FACS analysis relative to SAHA; format: cell-based
[5] = molecular target: T1, Protein deacetylase HDAC6 (Homo sapiens, UniProt Q9UBN7); experiment: Inhibition of recombinant human His-tagged HDAC6 expressed in baculovirus infected insect cells using Boc Lys(Ac)-AMC as substrate preincubated for 5 mins followed by substrate addition and measured after 30 mins by fluorescence assay
T1 sequence (Q9UBN7 whole entry): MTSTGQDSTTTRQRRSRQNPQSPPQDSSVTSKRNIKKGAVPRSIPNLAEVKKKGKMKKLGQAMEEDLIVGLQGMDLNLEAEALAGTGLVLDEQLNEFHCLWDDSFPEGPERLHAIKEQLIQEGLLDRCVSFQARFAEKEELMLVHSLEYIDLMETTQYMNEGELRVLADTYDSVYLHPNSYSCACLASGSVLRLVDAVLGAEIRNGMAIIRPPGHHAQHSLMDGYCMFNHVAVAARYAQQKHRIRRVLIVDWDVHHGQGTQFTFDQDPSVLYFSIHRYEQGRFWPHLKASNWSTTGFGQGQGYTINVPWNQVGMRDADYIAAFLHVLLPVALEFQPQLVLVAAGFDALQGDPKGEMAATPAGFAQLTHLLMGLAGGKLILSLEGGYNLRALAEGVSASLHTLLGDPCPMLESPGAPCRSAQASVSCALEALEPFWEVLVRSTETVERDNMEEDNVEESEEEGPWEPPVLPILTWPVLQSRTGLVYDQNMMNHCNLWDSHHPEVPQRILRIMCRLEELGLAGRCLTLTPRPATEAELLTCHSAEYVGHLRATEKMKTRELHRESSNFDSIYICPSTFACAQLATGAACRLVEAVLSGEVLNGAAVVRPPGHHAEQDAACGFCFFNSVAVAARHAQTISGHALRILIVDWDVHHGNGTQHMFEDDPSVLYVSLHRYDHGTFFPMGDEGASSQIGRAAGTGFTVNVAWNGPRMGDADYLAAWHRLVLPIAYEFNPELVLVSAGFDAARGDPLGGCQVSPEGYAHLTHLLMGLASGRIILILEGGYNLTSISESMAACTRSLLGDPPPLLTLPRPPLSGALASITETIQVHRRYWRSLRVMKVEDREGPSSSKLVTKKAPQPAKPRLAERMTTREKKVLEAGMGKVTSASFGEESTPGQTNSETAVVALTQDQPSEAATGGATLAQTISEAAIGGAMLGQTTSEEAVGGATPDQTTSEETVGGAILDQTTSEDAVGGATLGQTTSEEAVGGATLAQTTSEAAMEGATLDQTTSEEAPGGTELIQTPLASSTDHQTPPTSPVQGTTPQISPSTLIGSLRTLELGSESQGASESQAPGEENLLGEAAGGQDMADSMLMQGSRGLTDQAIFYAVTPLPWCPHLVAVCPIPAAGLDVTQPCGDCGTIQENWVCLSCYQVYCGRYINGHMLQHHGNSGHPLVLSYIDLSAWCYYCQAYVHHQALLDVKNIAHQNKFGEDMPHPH

[6] = molecular target: T2, Histone deacetylase 1 (Homo sapiens, UniProt Q13547); experiment: Inhibition of recombinant human His-tagged HDAC1 (482 residues) expressed in baculovirus infected insect cells using Boc Lys(Ac)-AMC as substrate preincubated for 5 mins followed by substrate addition and measured after 30 mins by fluorescence assay
T2 sequence (Q13547 whole entry): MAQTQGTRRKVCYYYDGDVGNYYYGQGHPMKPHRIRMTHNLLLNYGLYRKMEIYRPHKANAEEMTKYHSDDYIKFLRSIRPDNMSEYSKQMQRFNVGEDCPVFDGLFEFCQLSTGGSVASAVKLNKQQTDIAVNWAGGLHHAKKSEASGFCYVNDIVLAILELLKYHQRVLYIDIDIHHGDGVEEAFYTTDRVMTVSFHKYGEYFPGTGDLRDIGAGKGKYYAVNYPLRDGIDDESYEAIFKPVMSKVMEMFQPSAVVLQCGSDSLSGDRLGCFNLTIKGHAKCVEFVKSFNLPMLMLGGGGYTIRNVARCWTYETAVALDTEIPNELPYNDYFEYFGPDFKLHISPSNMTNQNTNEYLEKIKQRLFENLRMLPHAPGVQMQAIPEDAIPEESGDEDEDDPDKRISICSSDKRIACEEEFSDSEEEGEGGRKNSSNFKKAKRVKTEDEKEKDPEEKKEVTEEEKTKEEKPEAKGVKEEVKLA

[7] = molecular target: T2, Histone deacetylase 1; experiment: Inhibition of HDAC1 (unknown origin)
[8] = molecular target: T3, Histone deacetylase 4 (Homo sapiens, UniProt P56524); experiment: Inhibition of HDAC4 (unknown origin)
T3 sequence (P56524 whole entry): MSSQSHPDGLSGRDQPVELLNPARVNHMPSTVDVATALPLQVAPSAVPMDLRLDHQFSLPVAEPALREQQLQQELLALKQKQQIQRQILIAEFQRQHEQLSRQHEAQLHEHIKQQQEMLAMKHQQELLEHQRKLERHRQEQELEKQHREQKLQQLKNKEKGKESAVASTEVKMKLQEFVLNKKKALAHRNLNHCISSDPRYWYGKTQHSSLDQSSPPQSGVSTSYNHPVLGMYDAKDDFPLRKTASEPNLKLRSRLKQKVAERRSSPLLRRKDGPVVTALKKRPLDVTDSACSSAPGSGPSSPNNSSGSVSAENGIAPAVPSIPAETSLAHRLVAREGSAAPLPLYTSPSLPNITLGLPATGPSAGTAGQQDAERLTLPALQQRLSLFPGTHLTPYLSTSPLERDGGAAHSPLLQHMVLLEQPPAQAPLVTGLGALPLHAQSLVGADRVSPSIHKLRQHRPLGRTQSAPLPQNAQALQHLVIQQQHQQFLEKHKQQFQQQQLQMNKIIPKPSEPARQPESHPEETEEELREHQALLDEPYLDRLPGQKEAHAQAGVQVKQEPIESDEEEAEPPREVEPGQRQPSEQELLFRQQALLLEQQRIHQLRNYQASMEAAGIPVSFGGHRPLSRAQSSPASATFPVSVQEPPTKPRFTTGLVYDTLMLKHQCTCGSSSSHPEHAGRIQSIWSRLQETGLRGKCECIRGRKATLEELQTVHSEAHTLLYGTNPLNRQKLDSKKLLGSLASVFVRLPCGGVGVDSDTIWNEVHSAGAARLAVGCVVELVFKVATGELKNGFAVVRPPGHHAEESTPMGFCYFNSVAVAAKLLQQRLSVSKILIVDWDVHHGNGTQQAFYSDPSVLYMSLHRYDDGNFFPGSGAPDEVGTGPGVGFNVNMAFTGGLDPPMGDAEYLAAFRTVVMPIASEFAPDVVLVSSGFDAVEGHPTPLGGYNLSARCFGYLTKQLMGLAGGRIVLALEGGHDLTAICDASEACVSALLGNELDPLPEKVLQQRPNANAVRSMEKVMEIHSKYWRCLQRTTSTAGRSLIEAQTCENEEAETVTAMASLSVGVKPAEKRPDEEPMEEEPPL

[9] = molecular target: T1, Protein deacetylase HDAC6; experiment: Inhibition of HDAC6 (unknown origin)
[10] = molecular target: T2, Histone deacetylase 1; experiment: Inhibition of recombinant human HDAC1 expressed in HEK293T cells using Ac-KGLGK(Ac)-MCA as substrate measured after 30 mins by fluorescence assay
[11] = molecular target: T4, Protein deacetylase HDAC6 (Mus musculus, UniProt Q9Z2V5); experiment: Inhibition of recombinant mouse HDAC6 expressed in HEK293T cells using Ac-KGLGK(Ac)-MCA as substrate measured after 30 mins by fluorescence assay
T4 sequence (Q9Z2V5 whole entry): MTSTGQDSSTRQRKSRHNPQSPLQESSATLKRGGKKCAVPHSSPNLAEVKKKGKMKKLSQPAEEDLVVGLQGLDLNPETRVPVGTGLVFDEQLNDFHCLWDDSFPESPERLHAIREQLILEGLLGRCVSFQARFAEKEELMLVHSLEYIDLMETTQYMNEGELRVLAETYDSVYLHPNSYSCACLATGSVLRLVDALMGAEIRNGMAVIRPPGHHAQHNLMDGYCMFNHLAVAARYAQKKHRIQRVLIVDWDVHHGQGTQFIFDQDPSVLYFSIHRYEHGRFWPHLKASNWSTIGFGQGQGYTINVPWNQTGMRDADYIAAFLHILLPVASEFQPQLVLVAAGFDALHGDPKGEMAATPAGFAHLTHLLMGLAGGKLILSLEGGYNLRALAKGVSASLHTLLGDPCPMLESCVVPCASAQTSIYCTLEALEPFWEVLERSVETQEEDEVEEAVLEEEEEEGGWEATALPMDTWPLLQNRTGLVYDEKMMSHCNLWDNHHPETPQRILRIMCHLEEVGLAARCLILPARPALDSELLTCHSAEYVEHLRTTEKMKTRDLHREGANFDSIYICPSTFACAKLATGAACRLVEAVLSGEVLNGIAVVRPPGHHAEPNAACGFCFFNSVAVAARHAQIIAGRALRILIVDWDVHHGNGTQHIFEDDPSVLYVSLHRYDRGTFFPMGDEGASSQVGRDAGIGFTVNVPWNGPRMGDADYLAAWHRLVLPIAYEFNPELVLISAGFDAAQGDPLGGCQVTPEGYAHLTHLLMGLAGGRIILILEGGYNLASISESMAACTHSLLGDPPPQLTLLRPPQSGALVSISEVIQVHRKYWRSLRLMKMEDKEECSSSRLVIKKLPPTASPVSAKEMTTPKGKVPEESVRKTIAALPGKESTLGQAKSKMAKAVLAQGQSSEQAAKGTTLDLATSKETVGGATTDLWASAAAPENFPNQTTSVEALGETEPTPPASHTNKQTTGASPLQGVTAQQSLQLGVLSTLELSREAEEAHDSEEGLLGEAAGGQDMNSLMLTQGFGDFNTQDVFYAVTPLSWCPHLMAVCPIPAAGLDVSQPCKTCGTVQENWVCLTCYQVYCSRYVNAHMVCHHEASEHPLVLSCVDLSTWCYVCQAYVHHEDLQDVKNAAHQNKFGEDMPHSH

[12] = molecular target: T3, Histone deacetylase 4; experiment: Inhibition of recombinant human HDAC4 expressed in HEK293T cells using Ac-KGLGK(Ac)-MCA as substrate measured after 30 mins by fluorescence assay
[13] = molecular target: T2, Histone deacetylase 1; experiment: Inhibition of recombinant human GST-tagged HDAC1 expressed in baculovirus infected Sf9 insect cells Fluor-de-lys as substrate measured after 2 hrs by fluorescence assay
[14] = molecular target: Histone deacetylase; format: cell-based, Homo sapiens; conditions: hela
[15] = molecular target: Histone deacetylase 3 (Homo sapiens, UniProt O15379); experiment: Inhibition of HDAC3 (unknown origin)
Chain of Histone deacetylase 3 (O15379 whole entry): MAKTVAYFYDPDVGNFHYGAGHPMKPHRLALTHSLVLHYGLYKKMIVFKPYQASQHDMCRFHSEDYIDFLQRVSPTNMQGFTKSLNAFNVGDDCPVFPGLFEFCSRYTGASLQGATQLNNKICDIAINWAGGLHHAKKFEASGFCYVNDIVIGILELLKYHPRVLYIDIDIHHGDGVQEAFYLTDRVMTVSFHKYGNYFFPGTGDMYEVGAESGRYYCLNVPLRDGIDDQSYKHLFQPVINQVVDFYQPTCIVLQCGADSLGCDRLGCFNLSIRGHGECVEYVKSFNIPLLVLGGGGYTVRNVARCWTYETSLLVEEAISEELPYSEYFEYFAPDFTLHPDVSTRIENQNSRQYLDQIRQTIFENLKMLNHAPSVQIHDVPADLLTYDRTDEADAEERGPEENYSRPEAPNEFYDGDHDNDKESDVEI

[16] = molecular target: Histone deacetylase (HDAC1 and HDAC2) (Homo sapiens, UniProt Q13547+Q92769); format: cell-based; conditions: hela

SMILES: O=C(CCCCCCn1cc(-c2ccccc2)nn1)NO
- IC50 [1]: 1390 nM
- IC50 [2]: 1980 nM
- IC50 [3]: 1210 nM
- histone acetylation relative to SAHA [4]: 108%

SMILES: CC(C)CCc1c(OCCOc2ccc(/C=C/C(=O)NO)cc2)ccc2c1OC(=O)CC2
- IC50 [5]: 55.6 nM
- IC50 [6]: 83.2 nM

SMILES: O=C(NC(CCCCCSSCCO)C(=O)Nc1cccc2cccnc12)OCc1ccccc1 (stereo not drawn)
- IC50 [7]: 4.9 nM
- IC50 [8]: 2 nM
- IC50 [9]: 3.2 nM

SMILES: CC(C)CCc1c(OCCCOc2cccc(/C=C/C(=O)NO)c2)ccc2c1OC(=O)CC2
- IC50 [5]: 12.1 nM
- IC50 [6]: 64.7 nM

SMILES: COCCOCC(=O)SCCCCCC(NC(=O)OCc1ccccc1)C(=O)Nc1cccc2cccnc12 (stereo not drawn)
- IC50 [7]: 19 nM
- IC50 [8]: 18 nM
- IC50 [9]: 29 nM

SMILES: COCC(=O)CCCCC[C@@H]1NC(=O)[C@H]2CCCN2C(=O)[C@@H]2CCCCCCCCCCC[C@@H](NC1=O)C(=O)N2
- IC50 [10]: 27 nM
- IC50 [11]: > 100000 nM
- IC50 [12]: 26 nM

SMILES: CCC(CC)CN(CC)Cc1c(C)nc2cc(/C=C/C(=O)NO)ccn12
- IC50 [13]: 10 nM

SMILES: CCCN(Cc1ccc(C(=O)NO)cc1)C(=O)c1cc2c([nH]c3ccccc32)c(-c2ccc(OC)cc2)n1
- IC50 [14]: 260 nM

SMILES: COc1cc(/C=C/C(=O)NO)ccc1OCCCCN(C)C(=O)c1ccccc1O
- IC50 [15]: 260 nM
- IC50 [16]: 220 nM
- IC50 [9]: 380 nM

SMILES: COc1ccc(-c2cn(CCCCCCC(=O)NO)nn2)cc1
- IC50 [1]: 1780 nM
- IC50 [2]: 2840 nM
- IC50 [3]: 1530 nM
- histone acetylation relative to SAHA [4]: 85%

SMILES: CCCCNCc1c(CCCC)nc2cc(/C=C/C(=O)NO)ccn12
- IC50 [13]: 20 nM

SMILES: COc1ccc2c(c1)[nH]c1c(C)nccc12 [HARMINE]
- IC50 [14]: > 10000 nM

SMILES: O=C(CCCCC[C@@H]1NC(=O)[C@H]2CCCN2C(=O)[C@@H]2CCCCCCCCCCC[C@@H](NC1=O)C(=O)N2)NO
- IC50 [11]: 280 nM

SMILES: CC(C)CCc1c(OCCOc2cccc(/C=C/C(=O)NO)c2)ccc2c1OC(=O)CC2
- IC50 [5]: 6.31 nM
- IC50 [6]: 66.8 nM

SMILES: CCCCc1nc2cc(/C=C/C(=O)NO)ccn2c1CN(CC)CCCC
- IC50 [13]: 60 nM

SMILES: COc1cc(/C=C/C(=O)NO)ccc1OCCCNC(=O)c1ccccc1O
- IC50 [15]: 680 nM
- IC50 [16]: 370 nM
- IC50 [9]: 550 nM

SMILES: O=C(CCCCCn1cc(-c2ccccc2)nn1)NO
- IC50 [1]: 9370 nM
- IC50 [2]: 12500 nM
- IC50 [3]: 8350 nM
- histone acetylation relative to SAHA [4]: 48%

SMILES: CC(=O)SCCCCCC(NC(=O)OCc1ccccc1)C(=O)Nc1cccc2cccnc12 (stereo not drawn)
- IC50 [7]: 47 nM
- IC50 [8]: 18 nM
- IC50 [9]: 34 nM

SMILES: CCN(CC)CCN(Cc1ccc(C(=O)NO)cc1)C(=O)c1cc2c([nH]c3ccccc32)c(-c2ccc(OC)cc2)n1
- IC50 [14]: 120 nM

SMILES: CC(C)CCc1c(OCCCCOc2ccc(/C=C/C(=O)NO)cc2)ccc2c1OC(=O)CC2
- IC50 [5]: 82.6 nM
- IC50 [6]: 204 nM

SMILES: O=C(NC(CCCCCSSCCCCCC(NC(=O)OCc1ccccc1)C(=O)Nc1cccc2cccnc12)C(=O)Nc1cccc2cccnc12)OCc1ccccc1 (stereo not drawn)
- IC50 [7]: 8.2 nM
- IC50 [8]: 3.4 nM
- IC50 [9]: 7.5 nM

SMILES: O=C1N[C@@H]2CCCCCCCCCCC[C@H](NC2=O)C(=O)N2CCC[C@@H]2C(=O)N[C@H]1CCCCCB(O)O
- IC50 [10]: 12000 nM
- IC50 [11]: > 100000 nM
- IC50 [12]: 9400 nM

SMILES: COc1cc(/C=C/C(=O)NO)ccc1OCCCN(C)C(=O)c1ccccc1O
- IC50 [15]: 290 nM
- IC50 [16]: 180 nM
- IC50 [9]: 350 nM

SMILES: COc1cc(/C=C/C(=O)NO)ccc1OCCCCNC(=O)c1ccccc1O
- IC50 [15]: 410 nM
- IC50 [16]: 220 nM
- IC50 [9]: 360 nM

SMILES: O=C(CCCCCCn1cc(-c2ccc(Oc3ccccc3)cc2)nn1)NO
- IC50 [1]: 3550 nM
- IC50 [2]: 4340 nM
- IC50 [3]: 3300 nM
- histone acetylation relative to SAHA [4]: 53%

SMILES: CN(Cc1c(C(C)(C)C)nc2cc(/C=C/C(=O)NO)ccn12)CC(C)(C)C
- IC50 [13]: 780 nM

SMILES: COc1ccc(-c2nc(C(=O)N(CCN(C)C)Cc3ccc(C(=O)NO)cc3)cc3c2[nH]c2ccccc23)cc1
- IC50 [14]: 92 nM
